Measured values as given in patent US8268814B2, “Substituted sulfonamide compounds” (Gruenenthal GmbH, priority 2008, dated 2012).
Blank lines part the entries; values can stand above or below the molecule they belong to.

How the values were obtained:
[1] = target: T1, human B1R receptor (hB1R) (Homo sapiens, UniProt P46663); test: Functional FLIPR Ca2+ assay on the bradykinin 1 receptor, human (hB1R CHO K1 cells); type: cell-based; conditions: test substance 10 μM; CHO K1 cells transfected with human B1R gene; agonist Lys-Des-Arg9-bradykinin at EC80; % inhibition compared with maximum achievable inhibition; read-out: B1R antagonism, human (10 μM] % inhibition
T1 construct: expressed in transfected cells; host or cells: CHO K1 cells (Chinese hamster ovary), stably transfected
T1 sequence (P46663 1-353): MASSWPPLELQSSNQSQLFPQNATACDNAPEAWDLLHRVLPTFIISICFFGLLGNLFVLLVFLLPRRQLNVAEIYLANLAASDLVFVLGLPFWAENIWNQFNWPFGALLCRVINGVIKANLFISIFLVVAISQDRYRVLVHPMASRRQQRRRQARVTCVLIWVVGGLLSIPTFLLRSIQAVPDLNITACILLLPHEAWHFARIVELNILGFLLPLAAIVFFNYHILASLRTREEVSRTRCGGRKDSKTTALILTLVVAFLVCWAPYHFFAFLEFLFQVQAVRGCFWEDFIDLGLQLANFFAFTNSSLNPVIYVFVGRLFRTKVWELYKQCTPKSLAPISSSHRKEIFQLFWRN
Experimental: (§1) The agonistic or antagonistic action of substances can be quantified on the bradykinin 1 receptor (B1R) of the human and rat species with ectopically expressing cell lines (CHO K1 cells) and with the aid of a Ca^2+-sensitive dyestuff (Fluo-4) in a fluorescent imaging plate reader (FLIPR). The figure in % activation is based on the Ca^2+ signal after addition of Lys-Des-Arg^9-bradykinin (0.5 nM) or Des-Arg^9-bradykinin (100 nM). Antagonists lead to a suppression of the Ca^2+ inflow after addition of the agonist. % inhibition compared with the maximum achievable inhibition is stated.
(§2) The agonistic or antagonistic action of substances can be determined on the bradykinin 1 receptor (B1R) of the human and rat species with the following assay. In accordance with this assay, the Ca^2+ inflow through the channel is quantified with the aid of a Ca^2+-sensitive dyestuff (type Fluo-4, Molecular Probes Europe BV, Leiden, Holland) in a fluorescent imaging plate reader (FLIPR, Molecular Devices, Sunnyvale, USA).
(§3) Chinese hamster ovary cells (CHO K1 cells) transfected stably with the human B1R gene (hB1R cells) or the B1R gene of the rat (rB1R cells) are used. For functional studies, these cells are plated out on black 96-well plates with a clear base (BD Biosciences, Heidelberg, Germany or Greiner, Frickenhausen, Germany) in a density of 20,000-35,000 cells/well. The cells are left overnight at 37° C. and 5% CO2 in culture medium (hB1R cells: Nutrient Mixture Ham's F12, Gibco Invitrogen GmbH, Karlsruhe, Germany or DMEM, Sigma-Aldrich, Taufkirchen, Germany; rB1R cells: D-MEM/F12, Gibco Invitrogen GmbH, Karlsruhe, Germany) with 10 vol. % FBS (foetal bovine serum, Gibco Invitrogen GmbH, Karlsruhe, Germany or PAN Biotech GmbH, Aidenbach, Germany). On the following day, the cells are loaded for 60 min at 37° C. with 2.13 μM Fluo-4 (Molecular Probes Europe BV, Leiden, Holland) in HBSS buffer (Hank's buffered saline solution, Gibco Invitrogen GmbH, Karlsruhe, Germany) with 2.5 mM probenecid (Sigma-Aldrich, Taufkirchen, Germany) and 10 mM HEPES (Sigma-Aldrich, Taufkirchen, Germany). The plates are then washed 2× with HBSS buffer, and HBSS buffer which additionally contains 0.1% BSA (bovine serum albumin; Sigma-Aldrich, Taufkirchen, Germany), 5.6 mM glucose and 0.05% gelatine (Merck KgaA, Darmstadt, Germany) is added. After a further incubation of 20 minutes at room temperature, the plates are inserted into the FLIPR for the Ca^2+ measurement.
(§4) Alternatively, the plates are washed with buffer A (15 mM HEPES, 80 mM NaCl, 5 mM KCl, 1.2 mM CaCl2, 0.7 mM MgSO4, 2 g/l glucose, 2.5 mM probenecid), buffer A is added and the plates are loaded with 2.5 μM Fluo-4 and 0.025% Pluronic F127 (Sigma-Aldrich, Taufkirchen, Germany). Thereafter, the cells are washed 2× with buffer A and incubated for 30 minutes with buffer A, which additionally contains 0.05% BSA and 0.05% gelatine, at room temperature and thereafter inserted into the FLIPR for the Ca^2+ measurement. The Ca^2+-dependent fluorescence is measured here before and after addition of substances (λex=488 nm, λem=540 nm). Quantification is by measurement of the highest fluorescence intensity (FC, fluorescence counts) over time.
(§5) The FLIPR protocol consists of 2 additions of substance. Test substances (10 μM) are first pipetted on to the cells and the Ca^2+ inflow is compared with the control (hB1R: Lys-Des-Arg^9-bradykinin >=50 nM; rB1R: Des-Arg^9-bradykinin 10 μM). This gives the figure in % activation based on the Ca^2+ signal after addition of Lys-Des-Arg^9-bradykinin (>=50 nM) or Des-Arg^9-bradykinin (10 μM). After incubation for 10-20 minutes, Lys-Des-Arg^9-bradykinin (hB1R) or Des-Arg^9-bradykinin (rB1R) in the concentration of the EC80 is applied and the inflow of Ca^2+ is likewise determined. Antagonists lead to a suppression of the Ca^2+ inflow. % inhibition compared with the maximum achievable inhibition is calculated. In order to determine the IC50 value, the substances are added in various concentrations. […]

[2] = target: T2, B1R receptor of the rat (rB1R) (Rattus norvegicus, UniProt P97583); test: Functional FLIPR Ca2+ assay on the bradykinin 1 receptor, rat (rB1R CHO K1 cells); type: cell-based; conditions: test substance 10 μM; CHO K1 cells transfected with rat B1R gene; agonist Des-Arg9-bradykinin at EC80; % inhibition compared with maximum achievable inhibition; read-out: B1R antagonism, rat [10 μM] % inhibition
T2 construct: expressed in transfected cells; host or cells: CHO K1 cells (Chinese hamster ovary), stably transfected
T2 sequence (P97583 1-337): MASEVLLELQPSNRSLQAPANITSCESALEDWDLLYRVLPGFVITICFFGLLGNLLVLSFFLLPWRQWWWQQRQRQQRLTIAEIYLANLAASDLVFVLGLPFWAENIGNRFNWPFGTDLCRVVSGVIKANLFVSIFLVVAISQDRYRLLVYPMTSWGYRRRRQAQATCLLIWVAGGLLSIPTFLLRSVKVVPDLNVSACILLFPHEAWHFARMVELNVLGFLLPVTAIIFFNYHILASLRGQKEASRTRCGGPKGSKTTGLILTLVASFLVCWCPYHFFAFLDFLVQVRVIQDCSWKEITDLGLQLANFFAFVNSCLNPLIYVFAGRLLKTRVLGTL
Experimental: as §1, §2, §3, §4, §5

Structure (SMILES): Cc1cc(S(=O)(=O)N2CCCCC2CCC(=O)N2CCc3sccc3C2c2cccc(F)c2)c(C)cc1Cl (stereo not shown) [Example 35, 3-(1-(4-chloro-2,5-dimethylphenylsulfonyl)piperidin-2-yl)-1-(4-(3-fluorophenyl)-6,7-dihydrothieno[3,2-c]pyridin-5(4H)-yl)propan-1-one]
- inhibition at 10 µM [1]: 41%
- inhibition at 10 µM [2]: 3%

Structure (SMILES): COc1cc(C)c(S(=O)(=O)N(C)CCOCC(=O)N2CCc3[nH]cnc3C2c2ccccc2)c(C)c1 (stereo not shown) [Example 66, 4-Methoxy-N,2,6-trimethyl-N-[2-[2-oxo-2-(4-phenyl-4,5,6,7-tetrahydro-1H-imidazo[4,5-c]pyridin-5-yl)-ethoxy]-ethyl]-benzenesulfonic acid amide]
- inhibition at 10 µM [2]: 97%

Structure (SMILES): COc1cc(C)c(S(=O)(=O)N(CCOCC(=O)N2CCc3[nH]cnc3C2c2ccccc2)c2ccccc2)c(C)c1 (stereo not shown) [Example 84, 4-Methoxy-2,6-Dimethyl-N-[2-[2-oxo-2-(4-phenyl-4,5,6,7-tetrahydro-1H-imidazo[4,5-c]pyridin-5-yl)-ethoxy]-ethyl]-N-phenyl-benzenesulfonic acid amide]
- inhibition at 10 µM [2]: 97%

Structure (SMILES): CN1CCN(Cc2cc3c(s2)CCN(C(=O)COCC2CCCCN2S(=O)(=O)c2ccccc2C(F)(F)F)C3)CC1 (stereo not shown) [Example 97, 1-[2-[(4-Methyl-piperazin-1-yl)-methyl]-4,5,6,7-tetrahydro-thieno[3,2-c]pyridin-5-yl]-2-[[1-[[2-(trifluoromethyl)-phenyl]sulfonyl]-piperidin-2-yl]-methoxy]-ethanone]
- inhibition at 10 µM [2]: 96%

Structure (SMILES): Cc1cccc(Cl)c1S(=O)(=O)N1CCCCC1CCCC(=O)N1CCc2sc(CN3CCN(C)CC3)cc2C1 (stereo not shown) [Example 68, 4-[1-[(2-Chloro-6-methyl-phenyl)sulfonyl]-piperidin-2-yl]-1-[2-[(4-methyl-piperazin-1-yl)-methyl]-4,5,6,7-tetrahydro-thieno[3,2-c]pyridin-5-yl]-butan-1-one]
- inhibition at 10 µM [2]: 103%

Structure (SMILES): Cc1cccc(Cl)c1S(=O)(=O)N1CCCCC1CCCC(=O)N1CCc2[nH]cnc2C1c1ccccc1 (stereo not shown) [Example 69, 4-[1-[(2-Chloro-6-methyl-phenyl)sulfonyl]-piperidin-2-yl]-1-(4-phenyl-4,5,6,7-tetrahydro-1H-imidazo[4,5-c]pyridin-5-yl)-butan-1-one]
- inhibition at 10 µM [2]: 64%

Structure (SMILES): COc1cc(C)c(S(=O)(=O)N2c3ccccc3OCC2COCC(=O)N2CCc3[nH]cnc3C2c2ccccc2)c(C)c1 (stereo not shown) [Example 92, 2-[[4-[(4-Methoxy-2,6-dimethyl-phenyl)sulfonyl]-3,4-dihydro-2H-[1,4]benzoxazin-3-yl]-methoxy]-1-(4-phenyl-4,5,6,7-tetrahydro-1H-imidazo[4,5-c]pyridin-5-yl)-ethanone]
- inhibition at 10 µM [2]: 94%

Other lines, results leading:

- inhibition at 10 µM [1]: 100%
- inhibition at 10 µM [2]: 101%
Structure (SMILES): COc1cc(C)c(S(=O)(=O)N2CCCCC2CCCC(=O)N2CCc3sc(CN4CCN(C)CC4)cc3C2)c(C)c1 (stereo not shown) [Example 47, 4-(1-(4-methoxy-2,6-dimethylphenylsulfonyl)piperidin-2-yl)-1-(2-((4-methylpiperazin-1-yl)methyl)-6,7-dihydrothieno[3,2-c]pyridin-5(4H)-yl)butan-1-one]

- inhibition at 10 µM [1]: 100%
Structure (SMILES): COc1cc(C)c(S(=O)(=O)N2CCCC[C@H]2COCC(=O)N2CCc3sc(CN4CCCN(C)CC4)cc3C2)c(C)c1 [Example 64, 2-[[(2S)-1-[(4-methoxy-2,6-dimethyl-phenyl)sulfonyl]-piperidin-2-yl]-methoxy]-1-[2-[(4-methyl-[1,4]diazepan-1-yl)-methyl]-4,5,6,7-tetrahydro-thieno[3,2-c]pyridin-5-yl]-ethanone]

- inhibition at 10 µM [2]: 98%
Structure (SMILES): COc1cc(C)c(S(=O)(=O)N(CCOCC(=O)N2CCc3sc(CN4CCN(C)CC4)cc3C2)Cc2ccc3c(c2)OCOC3)c(C)c1 [Example 78, N-(4H-[1,3]Benzodioxin-7-yl-methyl)-4-methoxy-2,6-dimethyl-N-[2-[2-[2-[(4-methyl-piperazin-1-yl)-methyl]-4,5,6,7-tetrahydro-thieno[3,2-c]pyridin-5-yl]-2-oxo-ethoxy]-ethyl]-benzenesulfonic acid amide]

- inhibition at 10 µM [2]: 102%
Structure (SMILES): COc1cc(C)c(S(=O)(=O)N(CCOCC(=O)N2CCc3sc(CN4CCN(C)CC4)cc3C2)Cc2ccccc2)c(C)c1 [Example 81, N-Benzyl-4-Methoxy-2,6-dimethyl-N-[2-[2-[2-[(4-methyl-piperazin-1-yl)-methyl]-4,5,6,7-tetrahydro-thieno[3,2-c]pyridin-5-yl]-2-oxo-ethoxy]-ethyl]-benzenesulfonic acid amide]

- inhibition at 10 µM [2]: 98%
Structure (SMILES): COc1cc(C)c(S(=O)(=O)N2CCCCC2COCCC(=O)N2CCc3sc(CN4CCN(C)CC4)cc3C2)c(C)c1 (stereo not shown) [Example 99, 3-[[1-[(4-Methoxy-2,6-dimethyl-phenyl)sulfonyl]-piperidin-2-yl]-methoxy]-1-[2-[(4-methyl-piperazin-1-yl)-methyl]-4,5,6,7-tetrahydro-thieno[3,2-c]pyridin-5-yl]-propan-1-one]

- inhibition at 10 µM [2]: 103%
Structure (SMILES): COc1cc(C)c(S(=O)(=O)N2c3ccccc3OCC2COCC(=O)N2CCc3sc(CN4CCN(C)CC4)cc3C2)c(C)c1 (stereo not shown) [Example 91, 2-[[4-[(4-Methoxy-2,6-dimethyl-phenyl)sulfonyl]-3,4-dihydro-2H-[1,4]benzoxazin-3-yl]-methoxy]-1-[2-[(4-methyl-piperazin-1-yl)-methyl]-4,5,6,7-tetrahydro-thieno[3,2-c]pyridin-5-yl]-ethanone]

- inhibition at 10 µM [2]: 101%
Structure (SMILES): COc1cc(C)c(S(=O)(=O)N(CCOCC(=O)N2CCc3sc(CN4CCN(C)CC4)cc3C2)c2ccccc2)c(C)c1 [Example 83, 4-Methoxy-2,6-Dimethyl-N-[2-[2-[2-[(4-methyl-piperazin-1-yl)-methyl]-4,5,6,7-tetrahydro-thieno[3,2-c]pyridin-5-yl]-2-oxo-ethoxy]-ethyl]-N-phenyl-benzenesulfonic acid amide]
